Results published in PubChem BioAssay AID2060506 (Molecular Pharmacology Branch, DTP, NCI, 2025).
Values joined by “and” are separate entries in the source; they are usually repeats but may differ in a detail not shown here. Identical values can stand only once.

System: 598228-144-R-J1-PDC complex spheroid viability
Assay: Anticancer human tumor 598228-144-R-J1-PDC patient-derived serous endometrial adenocarcinoma cell line growth inhibition [GQUAD]
Details: for viability, T/C: stronger effect = lower value
From the text: DNA G-quadruplex Stabilizer Agents in Combinations in Complex Spheroids
A high-throughput screen of multi-cell type tumor spheroids was designed to identify active combinations of DNA G-quadruplex stabilizer agents and targeted small molecules. Complex spheroids include a stromal component modeled by human endothelial cells (HUVEC) and fibroblasts modeled by human mesenchymal stem cells (MSCs). The concentration ranges selected for each drug and investigational agent were based upon clinically achievable concentrations if the clinical Cmax of the agent was known.
Compounds. The drugs and investigational agents: pidnarulex (CX-5461; NSC782164), APTO-253 (NSC789042), BRACO-19 (NSC847499), peposertib (NSC802822), ceralasertib (NSC780249), elimusertib (NSC800525), camonsertib (NSC841442), AZD-1390 (NSC803789), olaparib (NSC753686), talazoparib (NSC767125), ART-558 (NSC835418), sotorasib (NSC818433), MRTX-1133 (NSC836407), SN-38 (NSC673596), topotecan (NSC609699), etoposide (NSC141540), doxorubicin (NSC123127), gemcitabine (NSC613327), 5-fluorouracil (NSC19893), paclitaxel (NSC125973), vemurafenib (NSC761431), panobinostat (NSC761190), R-306465 (JNJ-16241199; NSC773264), adavosertib (NSC754352), TP-3654 (NSC805149), carboplatin (NSC241240), KSQ-4279 (NSC840948), and staurosporine (NSC755774) were obtained from the National Cancer Institute (NCI) Developmental Therapeutics Program Chemical Repository (34). The FDA-approved anticancer drug set is available from the NCI Developmental Therapeutics Program. […] The stock solutions were prepared in dimethyl sulfoxide (DMSO, Sigma-Aldrich, St. Louis, MO, cat. D2650) at 800-fold the tested concentration and stored at -70 degrees C prior to their use. All drugs and investigational agents were tested over a range starting from a high concentration at or near the clinical Cmax and decreasing in half-log increments. If the clinical Cmax for an agent had not been determined, the highest concentration tested was 10 microM.
2.3 Cell Culture. All cells were maintained in an incubator at 37 degrees C and 5% CO2 with 95% humidity. The PDC lines were cultured according to standard operating procedures established by the NCI PDMR. All PDCs were thawed and cultured in Matrigel-coated flasks prepared with a working solution of 1X Ham's F-12 nutrient mix, without supplementation (Invitrogen, cat. 11765054), 100 U/mL penicillin-streptomycin (Invitrogen, cat. 15140122), and 2.5% Matrigel (Corning Inc., cat. 354248) for the first three passages. The 857933-349-R-J2-PDC line was cultured in 6C/Colon 1B media, which includes advanced DMEM/F-12 (Thermo Fisher Scientific, cat. 12634028), 10 mM HEPES (Thermo Fisher Scientific, cat. 15630080), 1X GlutaMAX supplement (Thermo Fisher Scientific, cat. 35050061), 0.1 mg/mL primocin (InvivoGen, cat. ant-pm-2), 10% defined fetal bovine serum, heat inactivated (HyClone Laboratories Inc., cat. SH30070.03HI), 50% L-WRN conditioned media (ATCC, cat. CRL-3276), 1.25 mM N-Acetyl-L-cysteine (Sigma-Aldrich, cat. A9165), 10 mM nicotinamide (Sigma-Aldrich, cat. N0636), 1X B-27 supplement (Thermo Fisher Scientific, cat. 17504044), 1X N-2 supplement (Thermo Fisher Scientific, cat. 17502048), 10 microM Y-27632 dihydrochloride (Tocris Bioscience, cat. 1254), and 50 ng/mL human EGF recombinant protein (Thermo Fisher Scientific, cat. PHG0311). The 485176-168-R4-J1-PDC line was cultured in Panc media, which includes all 6C/Colon 1B media components plus 100 ng/mL human FGF-10 (Thermo Fisher Scientific, cat. 100-26), 500 nM SB-431542 (Selleckchem, cat. S1067), and gastrin (Tocris, cat. 3006).
[…]

[1] = curve of first compound, second compound 0.0316 µM
[2] = curve of first compound, second compound 0.1 µM
[3] = curve of first compound, second compound 0.316 µM
[4] = curve of first compound, second compound 1 µM
[5] = curve of first compound, second compound 3.16 µM
[6] = curve of first compound, second compound 10 µM
[7] = second compound 0.0316 µM, first compound 0.0316 µM
[8] = second compound 0.0316 µM, first compound 0.1 µM
[9] = second compound 0.0316 µM, first compound 0.316 µM
[10] = second compound 0.0316 µM, first compound 1 µM
[11] = second compound 0.0316 µM, first compound 3.16 µM
[12] = second compound 0.0316 µM, first compound 10 µM
[13] = second compound 0.1 µM, first compound 0.0316 µM
[14] = second compound 0.1 µM, first compound 0.1 µM
[15] = second compound 0.1 µM, first compound 0.316 µM
[16] = second compound 0.1 µM, first compound 1 µM
[17] = second compound 0.1 µM, first compound 3.16 µM
[18] = second compound 0.1 µM, first compound 10 µM
[19] = second compound 0.316 µM, first compound 0.0316 µM
[20] = second compound 0.316 µM, first compound 0.1 µM
[21] = second compound 0.316 µM, first compound 0.316 µM
[22] = second compound 0.316 µM, first compound 1 µM
[23] = second compound 0.316 µM, first compound 3.16 µM
[24] = second compound 0.316 µM, first compound 10 µM
[25] = second compound 1 µM, first compound 0.0316 µM
[26] = second compound 1 µM, first compound 0.1 µM
[27] = second compound 1 µM, first compound 0.316 µM
[28] = second compound 1 µM, first compound 1 µM
[29] = second compound 1 µM, first compound 3.16 µM
[30] = second compound 1 µM, first compound 10 µM
[31] = second compound 3.16 µM, first compound 0.0316 µM
[32] = second compound 3.16 µM, first compound 0.1 µM
[33] = second compound 3.16 µM, first compound 0.316 µM
[34] = second compound 3.16 µM, first compound 1 µM
[35] = second compound 3.16 µM, first compound 3.16 µM
[36] = second compound 3.16 µM, first compound 10 µM
[37] = second compound 10 µM, first compound 0.0316 µM
[38] = second compound 10 µM, first compound 0.1 µM
[39] = second compound 10 µM, first compound 0.316 µM
[40] = second compound 10 µM, first compound 1 µM
[41] = second compound 10 µM, first compound 3.16 µM
[42] = second compound 10 µM, first compound 10 µM
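Also: spheroids exposed to the agents for one week before reading.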
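For viability, T/C in this document: percent of vehicle DMSO control viability so 100% = untreated growth.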

CC[C@@]1(O)C(=O)OCc2c1cc1n(c2=O)Cc2cc3c(CN(C)C)c(O)ccc3nc2-1
viability, T/C (compound 0.000999 µM): 116% and 95.5% and 102% | viability, T/C (compound 0.00316 µM): 96.2% and 89.7% and 95.8% | viability, T/C (compound 0.00999 µM): 128% and 70.9% and 96.4% | viability, T/C (compound 0.0316 µM): 94.6% and 72% and 86.3% | viability, T/C (compound 0.0999 µM): 68.6% and 55% and 64.9% | viability, T/C (compound 0.316 µM): 68.7% and 50.2% and 51.1% | IC50 (curve of compound): > 0.316 µM and 0.305 µM

Cn1ncnc1[C@H]1c2n[nH]c(=O)c3cc(F)cc(c23)N[C@@H]1c1ccc(F)cc1
viability, T/C (compound 0.000999 µM): 102% and 87.8% and 113% | viability, T/C (compound 0.00316 µM): 108% and 103% and 91.4% | viability, T/C (compound 0.00999 µM): 73.5% and 93.9% and 92.7% | viability, T/C (compound 0.0316 µM): 101% and 75.7% and 85.6% | viability, T/C (compound 0.0999 µM): 90.7% and 71.7% and 88% | viability, T/C (compound 0.316 µM): 73.6% and 88.2% and 69.7% | IC50 (curve of compound): > 0.316 µM

Cc1cnc(CNC(=O)c2c(=O)c3ccc(N4CCCN(C)CC4)nc3n3c2sc2ccccc23)cn1
viability, T/C (compound 0.1 µM): 73.5% [middle of 12 runs] | viability, T/C (compound 1 µM): 65.9% [middle of 12 runs] | viability, T/C (compound 3.16 µM): 56.4% [middle of 12 runs]

COc1cc(C2c3cc4c(cc3C(OC3OC5COC(C)OC5C(O)C3O)C3COC(=O)C23)OCO4)cc(OC)c1O (stereo unspecified) + Cc1cnc(CNC(=O)c2c(=O)c3ccc(N4CCCN(C)CC4)nc3n3c2sc2ccccc23)cn1
IC50 [1]: 8.68 µM | IC50 [2]: > 10 µM | IC50 [3]: > 10 µM | IC50 [4]: > 10 µM | IC50 [5]: 3.43 µM | IC50 [6]: 0.765 µM | viability, T/C [7]: 79.7% | viability, T/C [8]: 85.8% | viability, T/C [9]: 88.4% | viability, T/C [10]: 58.6% | viability, T/C [11]: 79.8% | viability, T/C [12]: 46.1% | viability, T/C [13]: 89.4% | viability, T/C [14]: 60.1% | viability, T/C [15]: 54.8% | viability, T/C [16]: 66.4% | viability, T/C [17]: 55.1% | viability, T/C [18]: 44.4% | viability, T/C [19]: 87.8% | viability, T/C [20]: 62% | viability, T/C [21]: 64.2% | viability, T/C [22]: 72.1% | viability, T/C [23]: 67% | viability, T/C [24]: 47.8% | viability, T/C [25]: 64.2% | viability, T/C [26]: 69.9% | viability, T/C [27]: 74.7% | viability, T/C [28]: 72% | viability, T/C [29]: 71.9% | viability, T/C [30]: 46.9% | viability, T/C [31]: 64.6% | viability, T/C [32]: 70.7% | viability, T/C [33]: 73.3% | viability, T/C [34]: 61.7% | viability, T/C [35]: 51.8% | viability, T/C [36]: 35% | viability, T/C [37]: 57.6% | viability, T/C [38]: 45.2% | viability, T/C [39]: 52.1% | viability, T/C [40]: 47.5% | viability, T/C [41]: 43.2% | viability, T/C [42]: 9.83%

Nc1ccn(C2OC(CO)C(O)C2(F)F)c(=O)n1 (stereo unspecified) + Cc1[nH]c2ccc(F)cc2c1-c1nc2c3cccnc3c3ncccc3c2[nH]1
IC50 [1]: 0.439 µM | IC50 [2]: 0.136 µM | IC50 [3]: 0.135 µM | IC50 [4]: 0.0448 µM | IC50 [5]: < 0.0316 µM | IC50 [6]: < 0.0316 µM | viability, T/C [7]: 64.6% | viability, T/C [8]: 54.6% | viability, T/C [9]: 52.1% | viability, T/C [10]: 47.9% | viability, T/C [11]: 43.9% | viability, T/C [12]: 41% | viability, T/C [13]: 54.8% | viability, T/C [14]: 57.5% | viability, T/C [15]: 45.3% | viability, T/C [16]: 40% | viability, T/C [17]: 39.9% | viability, T/C [18]: 44.9% | viability, T/C [19]: 60.7% | viability, T/C [20]: 52.3% | viability, T/C [21]: 48.3% | viability, T/C [22]: 39.9% | viability, T/C [23]: 43.6% | viability, T/C [24]: 49.7% | viability, T/C [25]: 53.2% | viability, T/C [26]: 49.1% | viability, T/C [27]: 46.2% | viability, T/C [28]: 36.3% | viability, T/C [29]: 50.4% | viability, T/C [30]: 41.9% | viability, T/C [31]: 36.3% | viability, T/C [32]: 36.7% | viability, T/C [33]: 38.5% | viability, T/C [34]: 37.9% | viability, T/C [35]: 32.4% | viability, T/C [36]: 44.5% | viability, T/C [37]: 51.6% | viability, T/C [38]: 37.6% | viability, T/C [39]: 37.8% | viability, T/C [40]: 47.5% | viability, T/C [41]: 35.7% | viability, T/C [42]: 32%
